Test results published in ChEMBL document CHEMBL1649419, “Design and synthesis of pyrimidinone and pyrimidinedione inhibitors of dipeptidyl peptidase IV” (J Med Chem, 2011).

Legend:
[1] = Half life in rat liver microsomes by LC/MS analysis; format: ADME, Microsome
[2] = Volume of distribution at steady state in monkey at 1.1 mg/kg, iv and 7.6 mg/kg, po; format: ADME, organism-based, Macaca mulatta; settings: rhesus monkey, in vivo, read-out: Vdss
[3] = AUC in monkey at 7.6 mg/kg, po; format: ADME, organism-based, Macaca mulatta; design: dose 7.6 mg/kg, route oral; settings: rhesus monkey, plasma
[4] = Half life in human liver microsomes by LC/MS analysis; format: ADME, Microsome
[5] = Half life in monkey at 7.6 mg/kg, po; format: ADME, organism-based, Macaca mulatta; design: dose 7.6 mg/kg, route oral; settings: rhesus monkey, in vivo
[6] = Half life in monkey at 1.1 mg/kg, iv; format: ADME, organism-based, Macaca mulatta; design: dose 1.1 mg/kg, route intravenous; settings: rhesus monkey, in vivo
[7] = Oral bioavailability in monkey at 7.6 mg/kg; format: ADME, organism-based, Macaca mulatta; settings: rhesus monkey, in vivo

| Compound | half-life [1] [h] | half-life [4] [h] | other results |
| --- | --- | --- | --- |
| N#Cc1ccccc1Cn1c(N2CCC[C@@H](N)C2)ncc(Br)c1=O | 1.57 | > 3.33 | Vd [2]: 4.2 L/kg; AUC [3]: 8200 ng·h/mL; half-life [5]: 5.4 h; half-life [6]: 4.2 h; bioavailability [7]: 112% |
| N#Cc1ccccc1Cn1c(N2CCC[C@@H](N)C2)nccc1=O | 2.18 | > 3.33 |  |
| N#Cc1ccccc1Cn1c(N2CCC[C@@H](N)C2)ncc(F)c1=O | > 3.33 | > 3.33 |  |
| N#Cc1ccccc1Cn1c(N2CCC[C@@H](N)C2)ncc(Cl)c1=O | 3.32 | > 3.33 |  |
| Cc1nc(N2CCC[C@@H](N)C2)n(Cc2ccccc2C#N)c(=O)c1Br | 0.383 | > 3.33 |  |
| N#Cc1ccccc1Cn1c(N2CCC[C@@H](N)C2)ncc(I)c1=O | 0.983 | 2.68 |  |
| Cc1nc(N2CCC[C@@H](N)C2)n(Cc2ccccc2C#N)c(=O)c1C | 0.167 | > 3.33 |  |
| CCc1cnc(N2CCC[C@@H](N)C2)n(Cc2ccccc2C#N)c1=O | 0.117 | > 3.33 |  |
| COc1cnc(N2CCC[C@@H](N)C2)n(Cc2ccccc2C#N)c1=O | 0.333 | > 3.33 |  |
| N#Cc1ccccc1Cn1c(N2CCC[C@@H](N)C2)nc(-c2ccccc2)cc1=O | 0.2 | 1.98 |  |
| N#Cc1ccccc1Cn1c(N2CCC[C@@H](N)C2)nc2c(c1=O)CCCC2 | 0.1 | 1.38 |  |
| N#Cc1ccccc1Cn1c(N2CCC[C@@H](N)C2)ncc(-c2ccccc2)c1=O | 0.0167 | 1.17 |  |
| N#Cc1ccccc1Cn1c(N2CCC[C@@H](N)C2)ncc(-c2ccoc2)c1=O | 0.0667 | 0.933 |  |
| N#Cc1ccccc1Cn1c(N2CCC[C@@H](N)C2)ncc(-c2cc[nH]c2)c1=O | 1.18 | 1.02 |  |
| C#Cc1cnc(N2CCC[C@@H](N)C2)n(Cc2ccccc2C#N)c1=O | > 3.33 | > 3.33 |  |
| CC#Cc1cnc(N2CCC[C@@H](N)C2)n(Cc2ccccc2C#N)c1=O | > 3.33 | > 3.33 |  |
| N#Cc1ccccc1Cn1c(N2CCC[C@@H](N)C2)ncc(C#CCO)c1=O | > 3.33 | > 3.33 |  |
| C=Cc1cnc(N2CCC[C@@H](N)C2)n(Cc2ccccc2C#N)c1=O | 0.1 | 2.73 |  |
| N#Cc1ccccc1Cn1c(N2CCC[C@@H](N)C2)ncc(/C=C/c2ccccc2)c1=O | 0.567 | > 3.33 |  |
| N#Cc1ccccc1Cn1c(N2CCC[C@@H](N)C2)ncc(/C=C/c2ccc(F)cc2)c1=O | > 3.33 | 3.1 |  |
| N#Cc1ccccc1Cn1c(N2CCC[C@@H](N)C2)ncc(/C=C/c2cccnc2)c1=O | 0.45 | > 3.33 |  |
| N#Cc1ccsc1Cn1c(N2CCC[C@@H](N)C2)ncc(Br)c1=O | 0.25 | > 3.33 |  |
